Laboratory results from patent publication US20240148821A1, “PHARMACEUTICAL USE OF CYCLIC PEPTIDE COMPOUND” (CHUGAI SEIYAKU KABUSHIKI KAISHA, priority 2021, published 2024).
Numbered stars: 1 amine (or outer) side, 2 acyl side, 3 side chain; on linkers, the order of the positions; unused ones are H or OH. Bridge positions count the residues as written; N and C are the ends. Square brackets hold non-standard residues; d marks the D form. Peptide text beside a SMILES is read from it. * marks the point of attachment. hPhe(3-Cl-4-CF3) = N[C@@H](CCc1ccc(C(F)(F)F)c(Cl)c1)C(=O)O; hPhe(3-F,4-CF3) = N[C@@H](CCc1ccc(C(F)(F)F)c(F)c1)C(=O)O; NEtPhe(4-Cl) = CCN[C@@H](Cc1ccc(Cl)cc1)C(=O)O; NMePhe(3-CN) = CN[C@@H](Cc1cccc(C#N)c1)C(=O)O; NMePhe(4-Cl) = CN[C@@H](Cc1ccc(Cl)cc1)C(=O)O; NMePhe(4-Me) = CN[C@@H](Cc1ccc(C)cc1)C(=O)O; X48 = CN([C@@H](CCc1cccnc1)C(=O)[*:2])[*:1]; NMedβ3hAla = C[C@H](CC(=O)[*:2])N(C)[*:1]; Phe(3-Br) = N[C@@H](Cc1cccc(Br)c1)C(=O)O; NMeGly(cPent) = CN[C@H](C(=O)O)C1CCCC1; Pro(4,4-F2) = O=C(O)[C@@H]1CC(F)(F)CN1; X26 = CC(C)=CC[C@H](N[*:1])C(=O)[*:2]; NMe4Pal = CN[C@@H](Cc1ccncc1)C(=O)O; NMeGly(cBu) = CN[C@H](C(=O)O)C1CCC1; NMeCha = CN[C@@H](CC1CCCCC1)C(=O)O; NMeChg = CN[C@H](C(=O)O)C1CCCCC1; NMeI = CC[C@H](C)[C@H](NC)C(=O)O; NMeβAla = CN(CCC(=O)[*:2])[*:1]; NMeD = CN[C@@H](CC(=O)O)C(=O)O; NMeL = CN[C@@H](CC(C)C)C(=O)O; NMeNle = CCCC[C@H](NC)C(=O)O; NMeV = CN[C@H](C(=O)O)C(C)C; d(β3hA) = C[C@@H](N)CC(=O)O; Pip = O=C(O)[C@@H]1CCCCN1; Morpholide = C1CN(*)CCO1; NMeA = CN[C@@H](C)C(=O)O; NMeAib = CNC(C)(C)C(=O)O; Nle = CCCC[C@H](N)C(=O)O; Piperidide = C1CCN(*)CC1; Pyrrolidide = C1CCN(*)C1; Ac5c = NC1(C(=O)O)CCCC1; Aze = O=C(O)[C@@H]1CCN1; Sar = CNCC(=O)O

tested on: Human pancreatic cancer cell line AsPC-1 (G12D mutation Kras); test: AsPC-1 cell growth inhibition (AsPC-1 CGI); type: cell-based; conditions: read-out: AsPC-1 cell growth inhibition, 50% growth inhibitory concentration (IC50 value); 96 hours, CellTiter-Glo, values classified in ranges
Protocol: Test compounds were serially dilated with dimethyl sulfoxide, and 200 nL was then dispensed to a U-bottom 96-well plate using Labcyte Echo. […] The cell suspension was dispensed to a. plate containing a test compound at 100 μL per well and incubated at 37° C. in a 5% carbon dioxide gas incubator. 96 hours later, 80 μL of CellTiter-Glo (Promega) was added to each well and fluorescence was measured.

SMILES	IC50 [µM]
CC[C@H](C)[C@@H]1NC(=O)[C@@H]2CCCCN2C(=O)C[C@@H](C)NC(=O)[C@H](CC(C)C)N(C)C(=O)C2(CCCC2)NC(=O)[C@H](CC(C)C)N(C)C(=O)[C@H](CCc2ccc(C(F)(F)F)c(Cl)c2)NC(=O)CN(C)C(=O)[C@H](CC2CCCCC2)N(C)C(=O)CN(C)C(=O)CN(C)C1=O [Compound 213] (cyclo([Ac5c][NMeL][d(β3hA)][Pip]I[Sar][Sar][NMeCha][Sar][hPhe(3-Cl-4-CF3)][NMeL]))	> 0.5
CC[C@H](C)[C@@H]1NC(=O)[C@H](CC(C)C)N(C)C(=O)C[C@@H](C)NC(=O)[C@H](C2CCCC2)N(C)C(=O)C2(CCCC2)NC(=O)[C@@H](C)NC(=O)[C@H](CCc2ccc(C(F)(F)F)c(Cl)c2)NC(=O)CN(C)C(=O)[C@H](Cc2ccc(C)cc2)N(C)C(=O)[C@@H]2CCN2C(=O)[C@H](C)N(C)C1=O [Compound 1328] (cyclo([Ac5c][NMeGly(cPent)][d(β3hA)][NMeL]I[NMeA][Aze][NMePhe(4-Me)][Sar][hPhe(3-Cl-4-CF3)][dA]))	> 0.5
CC[C@H](C)[C@@H]1NC(=O)[C@H](C)N(C)C(=O)C[C@@H](C(=O)N2CCCCC2)N(C)C(=O)[C@H](C(C)C)N(C)C(=O)C2(CCCC2)NC(=O)[C@@H]2CCCN2C(=O)[C@H](CCc2ccc(C(F)(F)F)c(Cl)c2)NC(=O)CN(C)C(=O)[C@H](CC2CCCCC2)N(C)C(=O)[C@@H]2CCN2C(=O)[C@H](CC2CCCCC2)N(C)C1=O [Compound 1580] ([NMeA]I[NMeCha][Aze][NMeCha][Sar][hPhe(3-Cl-4-CF3)]P[Ac5c][NMeV][NMeD]-Piperidide; lactam N-11)	> 0.5
CC[C@H](C)[C@@H]1NC(=O)[C@H](CC(C)C)N(C)C(=O)C[C@@H](C(=O)N(C)C)N(C)C(=O)[C@H]([C@@H](C)CC)N(C)C(=O)[C@H](C)NC(=O)[C@H](Cc2ccncc2)N(C)C(=O)[C@H](CCc2ccc(C(F)(F)F)c(Cl)c2)NC(=O)CN(C)C(=O)[C@H](Cc2ccc(C)cc2)N(C)C(=O)[C@@H]2CCN2C(=O)[C@H](C)N(C)C1=O [Compound 1973] ([NMeL]I[NMeA][Aze][NMePhe(4-Me)][Sar][hPhe(3-Cl-4-CF3)][NMe4Pal]A[NMeI][NMeD]-NMe2; lactam N-11)	> 0.5
CC[C@H](C)[C@@H]1NC(=O)[C@H](CC(C)C)N(C)C(=O)C[C@@H](C(=O)N2CCCC2)NC(=O)[C@H](C(C)C)N(C)C(=O)C2(CCCC2)NC(=O)[C@@H]2CCCN2C(=O)[C@H](CCc2ccc(C(F)(F)F)c(Cl)c2)NC(=O)CN(C)C(=O)[C@H](CC2CCCCC2)N(C)C(=O)CN(C)C(=O)CN(C)C1=O [Compound 508] ([NMeL]I[Sar][Sar][NMeCha][Sar][hPhe(3-Cl-4-CF3)]P[Ac5c][NMeV]D-Pyrrolidide; lactam N-11)	> 0.5
CC[C@H](C)[C@@H]1NC(=O)[C@H](CC(C)C)N(C)C(=O)CCN(C)C(=O)[C@H](C(C)C)N(C)C(=O)C2(CCCC2)NC(=O)[C@@H]2CCCN2C(=O)[C@H](CCc2ccc(C(F)(F)F)c(F)c2)NC(=O)CN(C)C(=O)[C@H](CC2CCCCC2)N(C)C(=O)CN(C)C(=O)CN(C)C1=O [Compound 879] (cyclo([Ac5c][NMeV][NMeβAla][NMeL]I[Sar][Sar][NMeCha][Sar][hPhe(3-F,4-CF3)]P))	> 0.5
CC[C@H](C)[C@@H]1NC(=O)[C@H](CC(C)C)N(C)C(=O)C[C@@H](C(=O)N2CCOCC2)N(C)C(=O)[C@H](C2CCCCC2)N(C)C(=O)C2(CCCC2)NC(=O)[C@@H]2CC(F)(F)CN2C(=O)[C@H](CCc2ccc(C(F)(F)F)c(Cl)c2)NC(=O)CN(C)C(=O)[C@H](CC2CCCCC2)N(C)C(=O)CN(C)C(=O)CN(C)C1=O [Compound 1194] ([NMeL]I[Sar][Sar][NMeCha][Sar][hPhe(3-Cl-4-CF3)][Pro(4,4-F2)][Ac5c][NMeChg][NMeD]-Morpholide; lactam N-11)	≤ 0.02
CCCC[C@@H]1NC(=O)[C@H](Cc2cccc(Br)c2)NC(=O)CN(C)C(=O)[C@H](Cc2ccc(Cl)cc2)N(C)C(=O)[C@@H]2CCN2C(=O)[C@H](C)N(C)C(=O)[C@H]([C@@H](C)CC)NC(=O)[C@H](CC(C)C)N(C)C(=O)C[C@@H](C(=O)N2CCCCC2)N(C)C(=O)[C@H](CC(C)C)NC(=O)C(C)(C)N(C)C1=O [Compound 1415] ([NMeL]I[NMeA][Aze][NMePhe(4-Cl)][Sar][Phe(3-Br)][Nle][NMeAib]L[NMeD]-Piperidide; lactam N-11)	> 0.5
CCCC[C@@H]1NC(=O)[C@H](CCc2ccc(C(F)(F)F)c(Cl)c2)NC(=O)CN(C)C(=O)[C@H](Cc2ccc(Cl)cc2)N(CC)C(=O)CN(C)C(=O)CN(C)C(=O)[C@H]([C@@H](C)CC)NC(=O)[C@H](CC(C)C)N(C)C(=O)C[C@@H](C(=O)N2CCCCC2)N(C)C(=O)[C@H](CC(C)C)NC(=O)C(C)(C)N(C)C1=O [Compound 895] ([NMeL]I[Sar][Sar][NEtPhe(4-Cl)][Sar][hPhe(3-Cl-4-CF3)][Nle][NMeAib]L[NMeD]-Piperidide; lactam N-11)	> 0.5
CC[C@H](C)[C@@H]1NC(=O)[C@H](CC(C)C)N(C)C(=O)C[C@@H](C(=O)N(C)C)N(C)C(=O)[C@H]([C@@H](C)CC)N(C)C(=O)C2(CCCC2)NC(=O)[C@H](CCc2cccnc2)N(C)C(=O)[C@H](CCc2ccc(C(F)(F)F)c(Cl)c2)NC(=O)CN(C)C(=O)[C@H](Cc2ccc(C)cc2)N(C)C(=O)[C@@H]2CCN2C(=O)[C@H](C)N(C)C1=O [Compound 1886] ([NMeL]I[NMeA][Aze][NMePhe(4-Me)][Sar][hPhe(3-Cl-4-CF3)][X48][Ac5c][NMeI][NMeD]-NMe2; lactam N-11)	≤ 0.02
CC[C@H](C)[C@@H]1NC(=O)[C@H](C)N(C)C(=O)C[C@@H](C)N(C)C(=O)[C@H](C2CCCCC2)N(C)C(=O)C2(CCCC2)NC(=O)[C@@H]2CCCN2C(=O)[C@H](CCc2ccc(C(F)(F)F)c(Cl)c2)NC(=O)CN(C)C(=O)[C@H](CC2CCCCC2)N(C)C(=O)CN(C)C(=O)CN(C)C1=O [Compound 1808] (cyclo([Ac5c][NMeChg][NMedβ3hAla][NMeA]I[Sar][Sar][NMeCha][Sar][hPhe(3-Cl-4-CF3)]P))	> 0.5
CC[C@H](C)[C@@H]1NC(=O)[C@H](C2CCC2)N(C)C(=O)C[C@@H](C(=O)N2CCCC2)N(C)C(=O)[C@H](C2CCCCC2)N(C)C(=O)C2(CCCC2)NC(=O)[C@@H]2CC(F)(F)CN2C(=O)[C@H](CCc2ccc(C(F)(F)F)c(Cl)c2)NC(=O)CN(C)C(=O)[C@H](CC2CCCCC2)N(C)C(=O)CN(C)C(=O)CN(C)C1=O [Compound 1363] ([NMeGly(cBu)]I[Sar][Sar][NMeCha][Sar][hPhe(3-Cl-4-CF3)][Pro(4,4-F2)][Ac5c][NMeChg][NMeD]-Pyrrolidide; lactam N-11)	≤ 0.02
CC[C@H](C)[C@@H]1NC(=O)[C@H](CC(C)C)N(C)C(=O)C[C@@H](C(=O)N(C)C)N(C)C(=O)[C@H](C2CCCC2)N(C)C(=O)C2(CCCC2)NC(=O)[C@@H]2CCCN2C(=O)[C@H](CCc2ccc(C(F)(F)F)c(Cl)c2)NC(=O)CN(C)C(=O)[C@H](Cc2ccc(C)cc2)N(C)C(=O)[C@@H]2CCN2C(=O)[C@H](C)NC1=O [Compound 363] ([NMeL]IA[Aze][NMePhe(4-Me)][Sar][hPhe(3-Cl-4-CF3)]P[Ac5c][NMeGly(cPent)][NMeD]-NMe2; lactam N-11)	≤ 0.02
CC[C@H](C)[C@@H]1NC(=O)[C@H](CC(C)C)N(C)C(=O)C[C@@H](C)NC(=O)[C@H](C(C)C)N(C)C(=O)C2(CCCC2)NC(=O)[C@@H]2CCCN2C(=O)[C@H](CCc2ccc(C(F)(F)F)c(Cl)c2)NC(=O)CN(C)C(=O)[C@H](Cc2cccc(C#N)c2)N(C)C(=O)CN(C)C(=O)CN(C)C1=O [Compound 975] (cyclo([Ac5c][NMeV][d(β3hA)][NMeL]I[Sar][Sar][NMePhe(3-CN)][Sar][hPhe(3-Cl-4-CF3)]P))	> 0.5
CC[C@H](C)[C@@H]1NC(=O)[C@H](CC(C)C)N(C)C(=O)C[C@@H](C(=O)N2CCCC2)N(C)C(=O)[C@H]([C@@H](C)CC)N(C)C(=O)C2(CCCC2)NC(=O)[C@@H]2CCCN2C(=O)[C@H](CCc2ccc(C(F)(F)F)c(Cl)c2)NC(=O)CN(C)C(=O)[C@H](CC2CCCCC2)N(C)C(=O)CN(C)C(=O)CN(C)C1=O [Compound 1662] ([NMeL]I[Sar][Sar][NMeCha][Sar][hPhe(3-Cl-4-CF3)]P[Ac5c][NMeI][NMeD]-Pyrrolidide; lactam N-11)	≤ 0.02
CC(C)=CC[C@@H]1NC(=O)[C@H](CC(C)C)N(C)C(=O)C[C@@H](C(=O)N2CCCCC2)N(C)C(=O)[C@H](C2CCCCC2)N(C)C(=O)C2(CCCC2)NC(=O)[C@@H]2CCCN2C(=O)[C@H](CCc2ccc(C(F)(F)F)c(Cl)c2)NC(=O)CN(C)C(=O)[C@H](CC2CCCCC2)N(C)C(=O)CN(C)C(=O)CN(C)C1=O [Compound 1134] ([NMeL][X26][Sar][Sar][NMeCha][Sar][hPhe(3-Cl-4-CF3)]P[Ac5c][NMeChg][NMeD]-Piperidide; lactam N-11)	> 0.5
CC[C@H](C)[C@@H]1NC(=O)[C@H](CC(C)C)N(C)C(=O)C[C@@H](C(=O)N2CCCCC2)N(C)C(=O)[C@H](CC(C)C)NC(=O)C(C)(C)N(C)C(=O)[C@H](CC(C)C)NC(=O)[C@H](CCc2ccc(C(F)(F)F)c(F)c2)NC(=O)CN(C)C(=O)[C@H](CC2CCCCC2)N(C)C(=O)CN(C)C(=O)CN(C)C1=O [Compound 969] ([NMeL]I[Sar][Sar][NMeCha][Sar][hPhe(3-F,4-CF3)]L[NMeAib]L[NMeD]-Piperidide; lactam N-11)	> 0.5
CCCC[C@H]1C(=O)N(C)[C@H](C(=O)N2CCCCC2)CC(=O)N(C)[C@@H](CC(C)C)C(=O)N[C@@H]([C@@H](C)CC)C(=O)N(C)CC(=O)N(C)CC(=O)N(C)[C@@H](CC2CCCCC2)C(=O)N(C)CC(=O)N[C@@H](CCc2ccc(C(F)(F)F)c(Cl)c2)C(=O)N2CCC[C@H]2C(=O)NC2(CCCC2)C(=O)N1C [Compound 1815] ([NMeL]I[Sar][Sar][NMeCha][Sar][hPhe(3-Cl-4-CF3)]P[Ac5c][NMeNle][NMeD]-Piperidide; lactam N-11)	> 0.5
